Assay [1] relates to tau-degrader-CRL4^CRBN complex. Description: Co-immunoprecipitation, ternary complex formation in A152T neurons. Format: cell-based, human. Particulars: 4 hr; for CRBN detected after immunoprecipitation of tau (TAU5): 1 μM ± carfilzomib or bortezomib. As for the experimental part: NPCs were plated and differentiated for 6 weeks, as described above, in six-well POL-coated plates. For each pull-down experiment, three wells of treated neurons were PBS-washed and combined into a single pellet. To stabilize and detect complex formation, all steps were performed on ice or at 4°C. […] The supernatant (Input) was transferred to a new tube and immediately aliquoted for the BCA assay to determine protein concentration. Antibodies, 10 μg of TAU5 and 5 μg of DDB1, were bound to Dynabeads (1.5 mg) per each condition to be tested (treatments). Immunoprecipitation of the target antigen (tau or DDB1) was performed by mixing protein lysate (200 μL sample corresponding to 300 μg of total protein) to each Dynabeads-antibody complex. All other steps followed the kit’s protocol. Elution was accomplished with 20 μL Elution Buffer and 10 μL of SDS-sample buffer with DTT (New England Biolabs), followed by removal of the magnetic beads. A volume of 10 μL of each IP sample was loaded onto SDS-PAGE for western blotting as described above.

Assay [2] addresses T1, P-tau S396 in control-1 8330–8-RC1 neurons (Homo sapiens, UniProt P10636).
T1 construct: modeling pathogenic tau species without the need for overexpression of heterologous genes; endogenous in cells; host or cells: 8330-8-RC1, MGH2069-RC1, CTR2-L17-RC2 human iPSC-derived neurons
The assay is described as follows: Western blot of P-tau S396 in control line 1 neurons. Particulars: control line 1, western blot, 1 μM, 24 hr. It counts as cell-based. The source says:
Cells from individuals carrying the tau risk variant A152T (c.1407G > A; NCBI RefSeq NM_001123066, rs143624519), the autosomal dominant mutation P301L (c.C1907T; NCBI NM_001123066, rs63751273), or age-matched non-mutant WT tau were employed in this study (Figure 2—source data 1). Dermal fibroblasts from the tau-P301L carrier and the healthy individual were generated from a skin biopsy from subjects within the MGH Frontotemporal Disorders Unit as part of the MGH Neurodegeneration Repository. Approval for human subjects’ work was obtained under a Partners/MGH-approved IRB Protocol (#2010P001611/MGH). […]
(§1) Neurons differentiated in six-well plates for 6 weeks were washed and collected in PBS, lysed in RIPA buffer (Boston Bio-Products, Boston, MA) supplemented with 2% SDS (Sigma), protease inhibitors cocktail (Roche Complete Mini tablets, Mannheim, Germany), and phosphatase inhibitors cocktail (Sigma), followed by water sonication (Bransonic Ultrasonic Baths, Thomas Scientific, Danbury, CT) and 20,000 g centrifugation for 20 min. Supernatants were transferred to new tubes and total protein concentration was quantified with the Pierce BCA Protein Assay Kit (ThermoFisher Scientific, Carlsbad, CA). […]
(A western blot detects proteins with antibodies after separation by electrophoresis.)

Assay [3] relates to total tau (TAU5) in P301L neurons. The assay is described as follows: Western blot of total tau in P301L neurons. The note with it: for reduction in total tau: western blot, 1 μM, 24 hr. It counts as cell-based, human.
Description: Cells from individuals carrying the tau risk variant A152T (c.1407G > A; NCBI RefSeq NM_001123066, rs143624519), the autosomal dominant mutation P301L (c.C1907T; NCBI NM_001123066, rs63751273), or age-matched non-mutant WT tau were employed in this study (Figure 2—source data 1). Dermal fibroblasts from the tau-P301L carrier and the healthy individual were generated from a skin biopsy from subjects within the MGH Frontotemporal Disorders Unit as part of the MGH Neurodegeneration Repository. Approval for human subjects’ work was obtained under a Partners/MGH-approved IRB Protocol (#2010P001611/MGH). Fibroblasts were reprogrammed into iPSCs, which were subsequently converted into cortical-enriched neural progenitor cells (NPCs) and differentiated into neuronal cells as previously described ([Almeida et al., 2012]; [Seo et al., 2017]; [Silva et al., 2016]; [Sheridan et al., 2011]) (Silva MC, Manuscript in preparation, 2019). Briefly, cells were cultured in 6-well (Fisher Scientific Corning, Pittsburgh, PA) or 96-well (Fisher Scientific Corning) plates coated with poly-ornithine (20 μg/mL in water, Sigma, St. Louis, MO) and laminin (5 μg/mL in PBS, Sigma) (POL-coated), in DMEM/F12-B27 media [70% DMEM (Gibco, Carlsbad, CA), 30% Ham’s-F12 (Fisher Scientific Corning), 2% B27 (Gibco), 1% penicillin-streptomycin (Gibco)]. Media was supplemented with EGF (20 ng/mL, Sigma), FGF (20 ng/mL, Stemgent, Cambridge, MA) and heparin (5 μg/mL, Sigma), to promote NPC proliferation and expansion. The growth factors were withdrawn to promote neural differentiation for 6 to 8 weeks, with half media change two times per week. Cell lines’ identity was authenticated by SANGER sequencing, karyotyping and ACGH analysis at different stages of culture maintenance from iPSC to NPC. All working cell lines tested negative for mycoplasma contamination.
Compound treatment in six-well plates was performed in 2 mL media volume by removing 1 mL of conditioned media from the culture and adding 1 mL of new media pre-mixed with the compound at the appropriate 2X concentration, followed by incubation at 37°C for the designated period of time. […]
as §1

Assay [4] deals with total tau (K9JA) and P-tau S396/S404 (PHF-1) in A152T neurons. The assay is described as follows: Immunofluorescence of tau in A152T neurons. Format: cell-based, human. The note with it: 10 μM, 24 hr, relative to vehicle- or QC-03–075-treated. Here is the method:
A152T NPCs were plated and differentiated in 96-well black clear-bottom plates (Corning) POL-coated for 6 weeks. Neurons were fixed with 4% (v/v) formaldehyde-PBS (Tousimis, Rockville, MD) for 20 min, washed in PBS (Corning), incubated in blocking/permeabilization buffer [10 mg/mL BSA (Sigma), 0.05% (v/v) Tween-20 (Biorad), 2% (v/v) goat serum, 0.1% Triton X-100 (Biorad), 92% (v/v) PBS] for 2 hr, followed by overnight incubation with primary antibodies (see antibody section), PBS washed, and then incubated with the corresponding AlexaFluor conjugated secondary antibodies (Life Technologies, Carlsbad, CA). Image acquisition was done with the IN Cell Analyzer 6000 Cell Imaging System (GE Healthcare Life Sciences, Marlborough, MA).

Structures are written as SMILES. “And” between values parts separate entries of the source, which are not always exact repeats. Identical values can stand only once.

T1 sequence (P10636 1-441 isoform P10636-8): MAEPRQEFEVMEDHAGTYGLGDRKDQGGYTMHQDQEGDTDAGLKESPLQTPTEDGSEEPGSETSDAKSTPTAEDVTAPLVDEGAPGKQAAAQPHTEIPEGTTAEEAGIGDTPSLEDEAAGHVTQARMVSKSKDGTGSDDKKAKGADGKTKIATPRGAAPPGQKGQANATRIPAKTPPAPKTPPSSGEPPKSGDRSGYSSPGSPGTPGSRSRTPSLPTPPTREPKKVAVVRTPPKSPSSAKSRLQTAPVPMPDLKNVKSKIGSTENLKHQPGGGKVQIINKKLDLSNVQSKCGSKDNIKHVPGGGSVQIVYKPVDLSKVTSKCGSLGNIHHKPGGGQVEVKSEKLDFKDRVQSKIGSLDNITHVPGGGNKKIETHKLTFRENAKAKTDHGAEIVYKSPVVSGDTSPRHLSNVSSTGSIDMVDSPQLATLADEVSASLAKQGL

For `O=C(CCc1ccc2c(c1)[nH]c1ccncc12)NCCOCCOCCNc1cccc2c1C(=O)N(C1CCC(=O)NC1=O)C2=O` (stereo not drawn) [QC-01–175], in assay [1] (1 μM ± carfilzomib), the “tau detected after immunoprecipitation of DDB1” value was “co-IP with both total tau (TAU5) and P-tau (PHF-1)”; the “ubiquitinated proteins (Ubi-1) with the same migration as tau after DDB1 IP” value is recorded as “increase in ubiquitinated proteins”. The “CRBN detected after immunoprecipitation of tau (TAU5)” value in assay [1] was “co-IP with CRBN”. In assay [2], the “degradation of P-tau” value was “unable to induce significant degradation”. In addition, in assay [3] (QC-01-175 0.001 μM, 8 h treatment), the “TAU5 (relative to vehicle)” value is 0.95 and 0.90 and 0.56 and 0.94 and 0.68 and 0.86. The “TAU5 (relative to vehicle)” value in assay [3] (QC-01-175 1 μM, 4 h treatment) was 1.07 and 1.10 and 0.76 and 0.60 and 0.72 and 0.88. The “reduction in total tau” value in assay [3] stood at 70%. Besides, in assay [4], the “P-tau S396/S404 (PHF-1) by immunofluorescence” value is “clear reduction” and the “total tau (K9JA) by immunofluorescence” value is on record as “clear reduction”.

For the molecule `O=C(CCc1ccc2c(c1)[nH]c1ccncc12)NCCOCCOCCNc1cccc2c1C(=O)N(C1CCCNC1=O)C2=O` (stereo not drawn) [QC-03–075], the “tau detected after immunoprecipitation of DDB1” value in assay [1] (1 μM ± carfilzomib) is “weak detection of total tau and P-tau”. Further, the “CRBN detected after immunoprecipitation of tau (TAU5)” value in assay [1] is “low level of CRBN-tau interaction”. In assay [3], the “reduction in total tau” value was “no effect”.

Source of the values: publication PMC6450673, “Targeted degradation of aberrant tau in frontotemporal dementia patient-derived neuronal cell models” (eLife, 2019).
